This note sets out measurements from PMC5310151 (Saudi Pharmaceutical Journal : SPJ, 2016).

In one assay the target is T1, PPARα (Mus musculus, UniProt P23204).
T1 sequence (P23204 1-468): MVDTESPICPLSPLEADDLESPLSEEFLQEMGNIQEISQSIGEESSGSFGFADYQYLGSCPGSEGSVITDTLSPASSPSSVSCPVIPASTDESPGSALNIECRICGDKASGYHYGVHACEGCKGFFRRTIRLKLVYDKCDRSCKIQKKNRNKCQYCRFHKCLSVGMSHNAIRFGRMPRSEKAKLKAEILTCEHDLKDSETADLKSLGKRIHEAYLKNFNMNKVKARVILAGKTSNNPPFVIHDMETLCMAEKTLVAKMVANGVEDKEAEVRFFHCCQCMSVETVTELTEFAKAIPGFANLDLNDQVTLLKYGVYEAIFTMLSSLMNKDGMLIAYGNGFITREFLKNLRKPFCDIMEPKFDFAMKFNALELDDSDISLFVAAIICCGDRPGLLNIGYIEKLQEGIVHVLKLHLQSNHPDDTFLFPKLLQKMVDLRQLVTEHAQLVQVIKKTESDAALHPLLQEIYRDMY
Briefly: PPRE luciferase reporter assay in HepG2 cells transfected with PPARα. The following applies: HepG2, read-out: Fold induction / PPAR alpha / 50 μg/ml. It counts as cell-based. On the technique in general: A reporter such as luciferase makes a cellular process visible.

The target in a further assay is T2, PPARγ (Rattus norvegicus, UniProt O88275).
T2 sequence (O88275 1-505): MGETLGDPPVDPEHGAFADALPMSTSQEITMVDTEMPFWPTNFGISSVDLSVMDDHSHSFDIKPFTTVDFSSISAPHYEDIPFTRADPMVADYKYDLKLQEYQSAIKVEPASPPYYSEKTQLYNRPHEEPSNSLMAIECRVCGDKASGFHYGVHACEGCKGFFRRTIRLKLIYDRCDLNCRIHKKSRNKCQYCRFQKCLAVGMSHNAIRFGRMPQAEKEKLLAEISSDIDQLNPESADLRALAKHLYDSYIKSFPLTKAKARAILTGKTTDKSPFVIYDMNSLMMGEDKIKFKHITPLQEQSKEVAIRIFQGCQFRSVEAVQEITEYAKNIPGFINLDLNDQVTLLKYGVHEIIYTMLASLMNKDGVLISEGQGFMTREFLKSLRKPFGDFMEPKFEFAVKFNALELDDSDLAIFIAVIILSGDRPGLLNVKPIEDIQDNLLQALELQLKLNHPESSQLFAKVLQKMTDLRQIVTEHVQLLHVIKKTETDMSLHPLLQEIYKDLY
The experiment in a line: PPRE luciferase reporter assay in HepG2 cells transfected with PPARγ. It is filed as cell-based. The following applies: HepG2, read-out: Fold induction / PPAR gamma / 50 μg/ml.

For the molecule `CC(C)(Oc1ccc(C2CC2(Cl)Cl)cc1)C(=O)O` (centres unmarked) [Ciprofibrate], the fold induction at PPARα was found to be 2.2 ± 0.21.
With `CN(CCOc1ccc(CC2SC(=O)NC2=O)cc1)c1ccccn1` (centres unmarked) [Rosiglitazone], the fold induction at 10 µM on PPARγ is 4.33 ± 0.54.
